# Entries after “also recorded” stand apart in the source; their conditions may differ.
# Key:
# [1] = system: p53 expression in B16 cells; assay: p53 level after Nutlin3 treatment, B16 cells; format: cell-based, mouse
# Experimental: (§1) FIG. 20. Restoring p53 by inhibiting mdm2 and iASPP suppresses melanoma growth in vitro and in vivo. FIG. 20A. H1299 cells were treated with DMSO or 10 μM nocodazole in the presence or absence of 2 or 10 μM of mitosis-related kinase inhibitors as indicated. […] FIG. 20B. Left panel: representative p53 level after Nutlin3 treatment for 24 hours in a variety of cells. Right bar graphs show the sub-G1 proportion of WM278 after treatment as that described in FIG. 19B (in upper panel, 10 μM and 20 μM Nutlin3 were used in parallel for comparison). From left to right of the upper right bar graph of FIG. 20B, the bars correspond to DMSO, Nut and JNJ+Nut, respectively. From left to right of the bottom bar graph of FIG. 20B, the bars correspond to DMSO, JNJ, Nut and JNJ+Nut, respectively. FIG. 20C. Me300, SK-MEL37, and B16 cells were treated as above (For B16 panel, 10 μM Nutlin3 was used) and sub-G1 proportion was analyzed. In (B) and (C), the bar graphs (mean±SD) were derived from three independent experiments. *p<0.05. FIG. 20D. Left panel: untreated B16 cells were subcutaneously injected into mice at day 1. […] Compound administration and tumor size measurement were repeated every two days from day 7 onwards. Bar graphs are shown as mean±SD (*p<0.05, n=6). FIG. 20E. Lower panels show representative images of isolated tumors. Right panel: representative H & E staining in B16 tumor section. Bar=20 μm. […]
# [2] = system: p53 expression in SK-MEL37, WM278 and Me300 cells; assay: p53 level after Nutlin3 treatment, human melanoma cells; format: cell-based
# Experimental: as §1
# [3] = system: iASPP modification in H1299 cells; assay: nocodazole-induced iASPP modification in H1299 cells, G2/M kinase inhibitor panel (immunoblotting); format: cell-based, human; settings: panel of 15 G2/M kinase inhibitors, 2-10 μM, 10 μM nocodazole overnight
# Experimental: FIG. 12. […] FIG. 12A. […] FIG. 12B. […] FIG. 12C.
# FIG. 13. FIG. 13A. […] FIG. 13B.
# FIG. 20. […] FIG. 20A. […] Bar=20 μm.
# For WB, cells were lysed in buffer containing 8 M urea, 1 M thiourea, 0.5% CHAPS, 50 mM DTT, and 24 mM spermine. A total of 40 μg of protein extract was loaded per lane into SDS-polyacrylamide gels. Gels were transferred onto nitrocellulose membrane (Protran) and the resulting blots incubated first with primary antibody overnight at 4° C. and then with the appropriate secondary horseradish peroxidize-conjugated antibody (Dako). The results were visualized by enhanced chemiluminescent detection (Amersham Biosciences) using X-ray film (Fujifilm).
# [4] = system: iASPP modification and p53-iASPP binding in WM278 cells; assay: iASPP modification and p53 co-immunoprecipitation in WM278 cells; format: cell-based, human
# Experimental: For WB, cells were lysed in buffer containing 8 M urea, 1 M thiourea, 0.5% CHAPS, 50 mM DTT, and 24 mM spermine. A total of 40 μg of protein extract was loaded per lane into SDS-polyacrylamide gels. Gels were transferred onto nitrocellulose membrane (Protran) and the resulting blots incubated first with primary antibody overnight at 4° C. and then with the appropriate secondary horseradish peroxidize-conjugated antibody (Dako). The results were visualized by enhanced chemiluminescent detection (Amersham Biosciences) using X-ray film (Fujifilm). For cell lysate immunoprecipitation, cells were dissolved in NP40 buffer (50 mM Tris-HCl pH 8.0, 150 mM NaCl, 1% NP-40) with protease inhibitor cocktail mix (Roche Diagnostics). Cells were further thoroughly broken by ultrasonication, followed by spinning for 1 hour. Achieved suspension was adjusted to 1-2 mg/ml using NP40 buffer and incubated with 20 μl nickel beads, glutathione beads, or protein A beads (with 2 μg required antibody) for 2 h at room temperature. The beads were washed for four times with NP40 buffer, boiled for 5 min in Laemmli sample buffer, and applied for Western blotting. For pure protein immunoprecipitation, 5-10 μg purified proteins were mixed in NP40 buffer with 1 mg/ml BSA for 2 h at room temperature.
# [5] = system: B16 melanoma cells; assay: apoptosis by Sub-G1 FACS analysis, Example 10, B16 cells; format: cell-based, mouse
# Experimental: as §1, with “20E.” for “20E. Lower panels show representative images of isolated tumors. Right panel: representative H & E staining in B16 tumor section. Bar=20 μm.”
# FIG. 22. […] Me300, SK-MEL37, and B16 cells were treated as described herein and sub-G1 cells were analyzed as described herein.
Structure (SMILES),optimal concentration of Nutlin3 to induce maximal p53 expression [1] [µM],optimal concentration of Nutlin3 to induce maximal p53 expression ([2]; SK-MEL37) [µM],optimal concentration of Nutlin3 to induce maximal p53 expression ([2]; WM278 and Me300 cells) [µM],prevention of nocodazole-induced iASPP modification [3],amount of modified iASPP ([4]; 0.4 μM JNJ or 10 μM nocodazole overnight),"binding of iASPP to p53 (co-immunoprecipitation) ([4]; 0.4 μM JNJ, listed as JNJ)",increase in Nutlin3-induced apoptosis [5]
COc1ccc(C2=N[C@@H](c3ccc(Cl)cc3)[C@@H](c3ccc(Cl)cc3)N2C(=O)N2CCNC(=O)C2)c(OC(C)C)c1 [Nutlin3],10,2,20,–,–,–,–
Nc1nc(Nc2ccc(S(N)(=O)=O)cc2)nn1C(=O)c1c(F)cccc1F [JNJ-7706621],–,–,–,most potent inhibitor of iASPP modification,reduced the amount of modified iASPP,failed to co-immunoprecipitate iASPP; also recorded: able to prevent iASPP from binding to p53,3-4 fold

# From patent US9880171B2, “iASPP phosphorylation and metastatic potential” (LUDWIG INSTITUTE FOR CANCER RESEARCH LTD., priority 2012, dated 2018)
